From US20260234188A1, “CHEMOKINE-BINDING PEPTIDES” (Oxford University Innovation Limited, priority 2022, published 2026)
“Also recorded” adds a separate entry of the source.

What was measured:
[1] = tested on: panel of 24 biotinylated chemokines; assay: Phage-display screen of HD2 NNK saturation mutagenesis library; assay type: binding, human; settings: for Chemokines Bound log2E 1-5 / Chemokines Bound log2E > 5: HD2 saturation mutants, chemokines on streptavidin beads, UniProt entry names; for peak log 2 E: best mutation at each residue
From the text: (§1) FIG. 7. Exemplar results from phage display screens using saturation mutagenesis. A phage-display library was constructed using the HD2 sequence, replacing each residue encoding codon with the degenerate sequence NNK. The 16 degenerate sequences (which also encoded the parental HD2 sequence) were pooled and cloned into display phage. […] Exemplar peptides were selected such that log 2 E for at least one chemokine was greater than 5, and log 2 E for binding to control (CO5, was less than zero). […] The fold enrichment of parental HD2 is also indicated.
as §1, with “A” for “FIG. 7. Exemplar results from phage display screens using saturation mutagenesis. A”
A molecular level understanding of binding mechanism is needed for development of peptides as therapeutics and is usually obtained from structural analyses. As HD2 binds many chemokines this becomes a challenging task, and we explored if we could elucidate this using phage display mutagenesis. The role of each residue in HD2 for binding was examined in phage-display. A library of HD2 mutations that had NNK substituted at each residue and performed phage-display selection against a panel of 24 biotinylated chemokines, in parallel, as described in Example 7. This strategy allowed us to evaluate the impact not only of Ala substitutions, but also conservative, hydrophilic and hydrophobic substitutions, and compare with binding of parental HD2 which is also included in the library. Ala substitution removes side-chains beyond the β-carbon and can be used to infer the role of side-chain functional groups without affecting conformational flexibility of the backbone. […] These residues are within the two motifs identified previously. Other notable residues identified were Y8 and P10. We next judged the impact of Ala mutation by calculating the change in log 2 E (Δlog 2 E) between the mutant and parental HD2. A positive value of Δlog 2 E indicates increased binding, and a negative value decreased binding compared to parental HD2. […] As may be seen, the log 2 E for the parental HD2 was ~0 in these analyses indicating lack of enrichment.
Oligonucleotide pools were amplified using primers: oligo_fwd: 5′-[…] and oligo_rev2: 5′-tcgtcaccctcggcgcctcctcoggatcctccacc. Oligonucleotide PCR products were cloned into plasmid prSTOP4Nsi using NEB Builder HiFi Assembly following instructions of the manufacturer. The vector pool was used to transform electrocompetent Invitrogen ElectroMAX™ DH5α-E™ cells. Plasmid DNA was harvested by MaxiPrep (GeneJet Plasmid Maxiprep Kit) and was transformed into SS320 phage display electrocompetent cells (Lucigen), following the manufacturer's protocol, resuspended in 950 μL recovery media for each electroporation, transferred to 50 mL Falcon tubes, 100 μL 1011 CFU/mL M13KO7 helper phage (NEB) added and shaken at 37° C., 220 RPM for 1 h. 1 mL recovery culture was added to 2YT medium containing +50 ug/mL carbenicillin and 25 ug/mL kanamycin, and grown overnight at 37C, 220 rpm. Phage was precipitated from the culture supernatant by adding 22.5 mL of supernatant to 4.5 mL 20% PEG 8000/2.5 M NaCl, incubating on ice for 30 min, and centrifuging at 10,000 RPM, 4° C. for 10 min, and resuspending phage in 1 ml of PBT, followed by centrifugation at 13000 RPM, 4° C., for 10 min. […]

[2] = tested on: panel of 25 biotinylated chemokines (15 CC-class chemokines, 10 CXC-class chemokines); assay: Phage-display screen of HD845 NNK mutagenesis library; assay type: binding, human; settings: for peak log 2 E: best mutation at each residue
Protocol: NNK mutagenesis library construction and screening was performed for the HD845 peptide using the methods described in Example 19. […] Following library selection with each chemokine, the enrichment (E) of each peptide was calculated in comparison to the input library, and expressed the enrichment as log 2 E, as this metric is correlated with binding affinity.
A two-pronged strategy was used to identify individual peptides with mutations that improve chemokine binding over the parental peptide HD845. To identify mutations that improve overall chemokine binding affinity, the best performing mutations were selected at each residue by their enhancement of mean log 2 E (FIG. 27A). To add in mutations that improve chemokine binding diversity, the best performing mutations at each residue were identified by their enhancement of peak log 2 E (FIG. 27B).

[3] = tested on: panel of up to 42 human chemokines; assay: Phage-display next generation sequencing screen of overlapping hexadecapeptide libraries, chemokines displayed on streptavidin beads; assay type: binding;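 also: chemokine listed when log2 fold enrichment exceeds 5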
In short: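 Phage-display libraries of 55662 overlapping hexadecapeptides from tick and viral chemokine-binding proteins, human chemokines and chemokine receptors screened against up to 42 human chemokines, with hits found by next-generation sequencing. Peptides mapped to parent-protein position with log2 fold enrichment; regions of interest where cumulative residue log2 E exceeds the 95% upper CI of the protein median.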

[4] = log2E greater than 5, chemokines named by first part of UniProt Entry Name
[5] = log2E greater than 5, chemokines named by first part of UniProt entry name, C5a (control) binders excluded

Substance | Chemokines Bound log2E 1-5 [1] | Chemokines Bound log2E > 5 [1] | further results
EEDDYTAYAPQTCYFT [HD2_Q11] | CCL1, CCL11, CCL15, CCL18,; also recorded: CCL22, CCL4, CCL5, CCL8 | CCL17 | –
EDEDYFDFFKPVTCYF [E6F] | – | – | mean log 2 E compared to parental HD845 ([2]; over CC chemokines): significant improvement
EEDDYTAYAPVTCYFT [HD2_V11] | CCL1, CCL11, CCL15, CCL18,; also recorded: CCL2, CCL22, CCL28, CCL3,; also recorded: CCL4, CCL5, CCL8, CXL10,; also recorded: CXL11, CXL13 | CCL17 | –
EEDDYTAYAPLHCYFT [HD2_H12] | CCL15, CCL28, CCL4, CCL5 | CCL22 | –
EEDDYTAYAPLTSYFT [HD901] | – | – | effect on Δlog 2 E ([1]; conservative residue substitutions (Dayhoff PAM250), mutant versus parental HD2): significant deleterious effect
EEDDYSAYAPLTCYFT [HD2_S6] | CCL11, CCL15, CCL17, CCL18,; also recorded: CCL2, CCL22, CCL4, CCL5, CCL8,; also recorded: X3CL1, CXL10, SDF1, CXL13, IL8 | CCL1, CCL3 | –
EEDDYTAYAPTTCYFT [HD2_T11] | CCL11, CCL17, CCL18, CCL22,; also recorded: CCL4, CCL5, CCL8 | CCL15 | –
EEDDYTAYAPFTCYFT [HD2_F11] | CCL18, CXL11, CXL13, CXL14 | CCL20 | –
EEEDYTAYAPLTCYFT [HD2_E3] | CCL8, X3CL1; also recorded: CCL1, CCL11, CCL15, CCL17,; also recorded: CCL18, CCL22, CCL4, CCL5, | CCL3 | –
EDDDYTAYAPLTCYFT [E2D] | – | – | mean log 2 E compared to parental HD2 ([1]; over all chemokines): enhancement over the parental that was not statistically significant
EEDDYTAYADLTCYFT [HD2_D1C] | – | CXL11 | peak log 2 E [1]: highest peak log 2 E at that residue
EDEDYWDFFKPVTCYF [E6W] | – | – | peak log 2 E [2]: highest peak log 2 E at that residue; mean log 2 E compared to parental HD845 ([2]; over XC chemokines): significant improvement; mean log 2 E compared to parental HD845 ([2]; over all chemokines): significant improvement
EEDDYTAYAPLVCYFT [HD2_V12] | CCL18, CCL25, CCL28, CCL4,; also recorded: CCL8, X3CL1, CXL10, SDF1,; also recorded: CXL13, CXL14 | CCL19 | –
EEDDYTEYAPLTCYFT [HD2_E7] | CCL1, CCL11, CCL15, CCL18,; also recorded: CCL2, CCL22, CCL28, CCL3,; also recorded: CCL4, CCL5, CCL8, X3CL1,; also recorded: CXL10, CXL14, IL8 | SDF1, CXL13 | –
EEDDYTWYAPLTCYFT [A7W] | – | – | mean log 2 E compared to parental HD2 ([1]; over XC (CXC/CX3C) chemokines): significant improvement
EEDDYTAYAPLTCYFD [HD2_D16] | CCL1, CCL11, CCL17, CCL18,; also recorded: CCL2, CCL22, CCL3, CCL4, CCL5,; also recorded: CCL8, X3CL1, CXL10, CXL11,; also recorded: CXL13, CXL14 | SDF1 | –
EEDDYTDYAPLTCYFT [HD2_D7] | CCL1, CCL11, CCL15, CCL17, and CCL18, CCL19, CCL2, CCL22, and CCL28, CCL3, CCL4, CCL5, CCL8, and X3CL1, CXL10, CXL11, CXL14, and IL8 | SDF1, CXL13 | mean log 2 E compared to parental HD2 ([1]; over all chemokines): significant improvement
EEDDYEAYAPLTCYFT [HD2_E6] | CCL1, CCL11, CCL15, CCL17,; also recorded: CCL18, CCL19, CCL2, CCL22,; also recorded: CCL28, CCL3, CCL4, CCL5, CCL8,; also recorded: X3CL1, CXL10, CXL11, CXL14 | SDF1, CXL13 | –
DEDDYTAYAPLTCYFT [E1D] | – | – | mean log 2 E compared to parental HD2 ([1]; over all chemokines): enhancement over the parental that was not statistically significant
EEDDYTAYAPYTCYFT [HD2_Y11] | CCL1, CCL11, CCL15, CCL17,; also recorded: CCL18, CCL19, CCL2, CCL20,; also recorded: CCL3, CCL4, CCL5, CCL8, X3CL1,; also recorded: CXL11, CXL13, CXL14 | CCL22 | –
EDEDYEDFFAPVTCYF [K10A] | – | – | peak log 2 E [2]: highest peak log 2 E at that residue; mean log 2 E compared to parental HD845 ([2]; over CC chemokines): significant improvement; mean log 2 E compared to parental HD845 ([2]; over all chemokines): significant improvement
CR24612 (VFLSIFYSVIFAIGLV) | – | – | Chemokines Bound [3, 4]: CCL17, CCL18,; also recorded: CCL22, CCL25,; also recorded: CCL28, X3CL1,; also recorded: CXL10, CXL11,; also recorded: SDF1, CXL13,; also recorded: CXL14
CR26327: chemokine binding peptide of Table 5A used in FIG. 5 combinations (VWVASILSSILDTIFH) | – | – | Chemokines Bound [3, 4]: CCL2, CXL11, and IL8
CR24347 (VAYSLIFLLGVIGNVL) | – | – | Chemokines Bound [3, 4]: CCL18, CCL19,; also recorded: CCL20, CXL11,; also recorded: CXL14
EEDDYTAYAPLICYFT [HD2_112] | CCL18, CCL25, CCL28, CCL4,; also recorded: X3CL1, CXL10, SDF1, CXL13,; also recorded: CXL14 | CCL19 | peak log 2 E [1]: highest peak log 2 E at that residue
CR10279 (IYLLNLAISNLLFLVT) | – | – | Chemokines Bound [3, 5]: CCL28, SDF1,; also recorded: CXL13, IL8
CK576 (CADPSESWVQEYVYDL) | – | – | Chemokines Bound [3, 5]: CCL17, CCL5,; also recorded: CXL10
